The values that follow come from patent US11691992B2 (Anacor Pharmaceuticals, Inc., priority 2017, dated 2023).

Structures are written as SMILES.

Format in all cases: cell-based
In assay [1] the test system is IL3000 T. congolense (drug sensitive) strain. The assay can be described thus: In vitro Alamar Blue 72 h drug sensitivity assay for T. congolense. Conditions: Trypanosoma congolense; bloodstream form, 69 h + 3 h resazurin, 34° C.; classes A-C; read-out: IC50: I Org. Growth T. congolense IL-3000, 3 d. The essentials: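 Bloodstream-form trypanosomes in HMI medium with 20% bovine serum, exposed to compound for 69 h at 34 °C, 5% CO2, then resazurin for 3 h more. Fluorescence read at 536/588 nm. IC50 from 11-point sigmoidal dose-response curves, at least three independent runs.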

In assay [2] the test system is STIB719/ILRAD560 T. vivax (drug sensitive) strain. Nature of the assay: Ex vivo Alamar Blue 48 h drug sensitivity assay for T. vivax. Conditions: Trypanosoma vivax, ex vivo bloodstream forms from mouse, 45 hrs + 3 hrs resazurin, read-out: IC50: I Hypoxanthine Incorporation T. vivax STIB 719/ILRA D 560, 2 d. The protocol:
Example 109. Ex Vivo Alamar Blue 48 h Drug Sensitivity Assay for T. vivax
[…] Test compounds were prepared as 10 mg/mL DMSO stocks for each assay run. Compounds were assayed in at least three separate, independent test runs and an 11-point dilution curve was used to determine the IC50 values. Bloodstream form trypanosomes were propagated and harvested from a highly parasitemic mouse (via cardiac puncture) and were incubated with test compounds for 45 hrs at 37° C. in a humidified atmosphere containing 5% CO2, supported in HMI media containing 20% bovine serum. […] Plates were then read using a fluorescent plate reader (Spectramax, Gemini XS, Bucher Biotec, Basel, Switzerland) using an excitation wavelength of 536 nm and an emission wavelength of 588 nm. Data points were averaged to generate sigmoidal dose-response curves and IC50 values were determined using Softmax Pro 5.2 software.
For orientation: Resazurin is reduced to fluorescent resorufin, in cell work by metabolically active cells.

Assay [3] has as its system bloodstream forms of T. b. rhodesiense STIB 900. The assay can be described thus: T. brucei rhodesiense STIB 900 growth inhibition assay. Conditions: Trypanosoma brucei; bloodstream forms, 72 h, Alamar Blue; protocol of Example 110; read-out: IC50: I Org. Growth T. brucei rhodesiense STIB 900, 3 d. The essentials:
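Bloodstream-form STIB 900 (10^4/well) were cultured in supplemented MEM with 15% horse serum and compound (90 to 0.123 μg/ml, 3-fold steps) for 72 h at 37 °C, 5% CO2. Viability was read by Alamar Blue fluorescence (ex 536/em 588 nm) after a further 2-4 h.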

The subject of assay [4] is Trypanosoma brucei rhodesiense STIB 900 strain. The assay can be described thus: Trypanosoma brucei rhodesiense STIB 900 screening assay. The following applies: STIB 900 bloodstream forms, 72 h, Alamar Blue, protocol of Example 114, read-out: Swiss TPH T b rhodesiense IC50. The protocol: Example 114. Trypanosoma brucei rhodesiense STIB 900 Screening Assay Procedure
The Trypanosoma brucei rhodesiense STIB 900 strain was isolated in 1982 from a human patient in Tanzania and after several mouse passages cloned and adapted to axenic culture conditions (Baltz, et al., EMBO Journal 4: 1273-1277 (1985); Thuita, et al., Acta Tropica 108: 6-10 (2008)). Minimum Essential Medium (50 μL) supplemented with 25 mM HEPES, 1 g/L additional glucose, 1% MEM non-essential amino acids (100×), 0.2 mM 2-mercaptoethanol, 1 mM Na-pyruvate and 15% heat inactivated horse serum was added to each well of a 96-well microtiter plate. Serial drug dilutions of seven 3-fold steps covering a range from 90 to 0.123 μg/mL were prepared. Then 10^4 bloodstream forms of T. b. rhodesiense STIB 900 in 50 μL was added to each well and the plate incubated at 37° C. under a 5% CO2 atmosphere for 72 h. 10 μL Alamar Blue (resazurin, 12.5 mg in 100 mL double-distilled water) was then added to each well and incubation continued for a further 2-4 h (Raz, et al., Acta Tropica 68: 139-47 (1997)). Then the plates were read with a Spectramax Gemini XS microplate fluorometer (Molecular Devices Corporation, Sunnyvale, Calif., USA) using an excitation wavelength of 536 nm and an emission wavelength of 588 nm. Data were transferred into the graphic program Softmax Pro (Molecular Devices), which calculated IC50 values.

Assay [5] concerns L. infantum MHOM/MA(BE)/67 amastigotes in primary peritoneal mouse macrophages. Nature of the assay: Leishmania infantum intracellular amastigote assay in mouse macrophages. The following applies: Macrophage, 120 h, amastigotes in primary peritoneal mouse macrophages, 5 d, Giemsa staining, read-out: Inhibition of Organism Growth in Leishmania infantum MHOM/MA/BE/67, 5 d. The essentials:
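Amastigotes harvested from infected hamster spleen infected primary peritoneal mouse macrophages (5×10^5 amastigotes/well, 2 h, 37 °C). Compounds then present 5 d at 37 °C, 5% CO2. Parasite burden counted by microscopy after Giemsa staining, as % of untreated controls; IC50 from sigmoidal variable-slope fit.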

Take `Cc1c(C(=O)Nc2ccc3c(c2)B(O)OC3)nnn1-c1cccc(C(F)(F)F)n1` [Example 48, N-(1-hydroxy-1,3-dihydrobenzo[c][1,2]oxaborol-6-yl)-5-methyl-1-(6-(trifluoromethyl)pyridin-2-yl)-1H-1,2,3-triazole-4-carboxamide]: the results for the IC50 in assay [1] and in assay [2] were 100 to 300 nM and 201 to 500 nM, respectively.

Regarding `COCc1c(C(=O)Nc2ccc3c(c2)B(O)OC3)nnn1-c1ccccn1` [Example 53, N-(1-hydroxy-1,3-dihydrobenzo[c][1,2]oxaborol-6-yl)-5-(methoxymethyl)-1-(pyridin-2-yl)-1H-1,2,3-triazole-4-carboxamide], the IC50 was less than 100 nM in assay [1] and less than 200 nM in assay [2].

With `O=C(Nc1ccc2c(c1)B(O)OC2)c1nnn(-c2ccccn2)c1C1CC1` [Example 54, 5-cyclopropyl-N-(1-hydroxy-1,3-dihydrobenzo[c][1,2]oxaborol-6-yl)-1-(pyridin-2-yl)-1H-1,2,3-triazole-4-carboxamide], the IC50 is less than 100 nM in assay [1] and 201 to 500 nM in assay [2].

For `O=C(Nc1ccc2c(c1)B(O)OC2)c1nnn(-c2ccccn2)c1CO` [Example 55, N-(1-hydroxy-1,3-dihydrobenzo[c][1,2]oxaborol-6-yl)-5-(hydroxymethyl)-1-(pyridin-2-yl)-1H-1,2,3-triazole-4-carboxamide], the IC50 in assay [1] was less than 100 nM; in assay [2] it was less than 200 nM.

For the compound `O=C(Nc1ccc2c(c1)B(O)OC2)c1nnn(-c2ccccn2)c1CC(F)(F)F` [Example 56, N-(1-hydroxy-1,3-dihydrobenzo[c][1,2]oxaborol-6-yl)-1-(pyridin-2-yl)-5-(2,2,2-trifluoroethyl)-1H-1,2,3-triazole-4-carboxamide], the IC50 in assay [1] lay in the range of 100 to 300 nM; in assay [2], 201 to 500 nM.

On to `O=C(Nc1ccc2c(c1)B(O)OC2)c1cn(-c2ncccc2Cl)nn1` [Example 58, 1-(3-Chloropyridin-2-yl)-N-(1-hydroxy-1,3-dihydrobenzo[c][1,2]oxaborol-6-yl)-1H-1,2,3-triazole-4-carboxamide], for which the IC50 in assay [3] was less than 100 nM; in assay [4] it was less than 100 nM; in assay [5], 3000 to 19900 nM; in assay [1], less than 100 nM; in assay [2], less than 200 nM.

With `O=C(Nc1ccc2c(c1)B(O)OC2)c1cn(-c2ccc(Cl)cn2)nn1` [Example 59, 1-(5-Chloropyridin-2-yl)-N-(1-hydroxy-1,3-dihydrobenzo[c][1,2]oxaborol-6-yl)-1H-1,2,3-triazole-4-carboxamide], the IC50 in assay [3] is 100 to 300 nM; in assay [4], less than 100 nM; in assay [5], 3000 to 19900 nM; in assay [1], less than 100 nM; in assay [2] it was 201 to 500 nM.

Regarding `CC1(C)OB(O)c2cc(NC(=O)c3cn(-c4ccccn4)nn3)ccc21` [Example 62, N-(1-hydroxy-3,3-dimethyl-1,3-dihydrobenzo[c][1,2]oxaborol-6-yl)-1-(pyridin-2-yl)-1H-1,2,3-triazole-4-carboxamide], the IC50 is 310 to 10000 nM in assay [3]; 260 to 2000 nM in assay [4]; 20000 to 100000 nM in assay [5]; 310 to 100000 nM in assay [1]; 510 to 10000 nM in assay [2].

Take `Cc1nn(-c2ccccc2)nc1C(=O)Nc1ccc2c(c1)B(O)OC2` [Example 72, N-(1-hydroxy-1,3-dihydrobenzo[c][1,2]oxaborol-6-yl)-5-methyl-2-phenyl-2H-1,2,3-triazole-4-carboxamide]: the IC50 in assay [3] was 100 to 300 nM; in assay [4], less than 100 nM; in assay [5] it was 3000 to 19900 nM; in assay [1], less than 100 nM; in assay [2], 201 to 500 nM.

On to `Cc1c(C(=O)Nc2ccc3c(c2)B(O)OC3)nnn1-c1ncccc1Cl` [Example 82, 1-(3-Chloropyridin-2-yl)-N-(1-hydroxy-1,3-dihydrobenzo[c][1,2]oxaborol-6-yl)-5-methyl-1H-1,2,3-triazole-4-carboxamide], for which the IC50 in assay [3] is 100 to 300 nM; in assay [4], 100 to 250 nM; in assay [5], 3000 to 19900 nM; in assay [1] it was less than 100 nM; in assay [2], less than 200 nM.

With `Cc1c(C(=O)Nc2ccc3c(c2)B(O)OC3)nnn1-c1ccc(Cl)cn1` [Example 83, 1-(5-Chloropyridin-2-yl)-N-(1-hydroxy-1,3-dihydrobenzo[c][1,2]oxaborol-6-yl)-5-methyl-1H-1,2,3-triazole-4-carboxamide], the IC50 in assay [3] was less than 100 nM; in assay [4], less than 100 nM; in assay [5], less than 3000 nM; in assay [1] it was less than 100 nM; in assay [2] it was 510 to 10000 nM.

As to `Cc1c(C(=O)Nc2ccc3c(c2)B(O)OC3(C)C)nnn1-c1ccccn1` [Example 85, N-(1-hydroxy-3,3-dimethyl-1,3-dihydrobenzo[c][1,2]oxaborol-6-yl)-5-methyl-1-(pyridin-2-yl)-1H-1,2,3-triazole-4-carboxamide], the IC50 fell in the range of 310 to 10000 nM in assay [3]; 260 to 2000 nM in assay [4]; 20000 to 100000 nM in assay [5]; 310 to 100000 nM in assay [1]; 510 to 10000 nM in assay [2].

With `Cc1c(C(=O)Nc2ccc3c(c2)B(O)OC3)nnn1-c1cccc(C(F)(F)F)c1` [Example 87, N-(1-hydroxy-1,3-dihydrobenzo[c][1,2]oxaborol-6-yl)-5-methyl-1-(3-(trifluoromethyl)phenyl)-1H-1,2,3-triazole-4-carboxamide], the IC50 lay in the range of 100 to 300 nM in assay [3]; 100 to 250 nM in assay [4]; 3000 to 19900 nM in assay [5]; 100 to 300 nM in assay [1]; 510 to 10000 nM in assay [2].

For the compound `COc1ccccc1-n1nnc(C(=O)Nc2ccc3c(c2)B(O)OC3)c1C` [Example 88, N-(1-hydroxy-1,3-dihydrobenzo[c][1,2]oxaborol-6-yl)-1-(2-methoxyphenyl)-5-methyl-1H-1,2,3-triazole-4-carboxamide], the IC50 in assay [3] is 100 to 300 nM; in assay [4], 100 to 250 nM; in assay [5], less than 3000 nM; in assay [1], less than 100 nM; in assay [2], 201 to 500 nM.

For `Cc1c(C(=O)Nc2ccc3c(c2)B(O)OC3(C)C)nnn1-c1ccccc1` [Example 92, N-(1-hydroxy-3,3-dimethyl-1,3-dihydrobenzo[c][1,2]oxaborol-6-yl)-5-methyl-1-phenyl-1H-1,2,3-triazole-4-carboxamide], the IC50 lay within 310 to 10000 nM in assay [3]; 260 to 2000 nM in assay [4]; 20000 to 100000 nM in assay [5]; 310 to 100000 nM in assay [1]; 510 to 10000 nM in assay [2].
